Series [1] has as its system pepper. The experiment in a line: Spraying on pepper to increase a yield. The conditions noted are these: for Average fruit number / Single-fruit weight / Yield per mu: 1.5 mg/mu sprayed twice (0.1 ppm and 0.05 ppm); for Yield increase rate: 1.5 mg/mu sprayed twice, versus clear water. It counts as in vivo, pepper (Hebei Jize pepper). The method, then:
Experimental method: A land area of 10 mu was adopted for each of experimental and control groups. A treatment group was sprayed with a potassium hematin solution, a control group was sprayed with heme (at the same dose concentration as the treatment group), and a blank was sprayed with clear water. On May 19 (after transplanting) and July 2 (blooming stage), an agent was sprayed at 1.5 mg/mu in the treatment and control groups, with water amounts per mu respectively as follows: 15 L and 30 L (sample concentrations: 0.1 ppm and 0.05 ppm). On September 13, 10 pepper plants with uniform growth were selected from each of the treatment group and the control group, and fruit numbers and single-fruit weights were counted. The whole field was harvested in three batches on August 30, September 13, and September 25, respectively. Yields were subjected to combined statistics and comparison, and results were as follows: […]

A short description of series [2]: Stability of sample solutions in the dark/under light. It counts as physicochemical. In a few lines:
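Salt in water, or acidic reference in 30–50% aqueous ethanol, at about 10 ppm; UV absorbance scanned 200–800 nm at 0, 1, 2, 3 h, stored at 25° C dark or under 30,000 lux light. Relative content = max-peak absorbance at each time divided by 0 h value (100%).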

In series [3] the test system is mung bean seedlings. The experiment in a line: Inducing adventitious roots from hypocotyls of mung bean. It counts as in vivo. As to conditions: day 7. The method, then:
Test solution preparation: 8 mL of a commercially-available STANLEY universal hydroponic nutrient solution was taken and diluted with tap water to 3,200 mL (400-fold dilution) to produce a dilute nutrient solution. An appropriate amount of each of salt samples such as protoporphyrin disodium and potassium chlorhematin was weighed and prepared with the dilute nutrient solution into 0.010 ppm and 0.1 ppm sample test solutions, and 150 mL of each test solution was taken. 150 mL of the dilute nutrient solution was taken as a blank control. The test solutions and the control solution were placed in brown bottles, and the brown bottles were sealed with a black film. Mung bean seedlings with uniform growth and a seedling height of 7 cm to 8 cm were selected, and cut at 3 cm below a first true leaf node. 8 mung bean seedlings were inserted into each bottle (with roots removed) to make lower radicles soaked in a solution. Mung bean seedlings were treated at room temperature of 20° C. to 25° C. for 7 d in total, during which the solution was changed every 2 d. On day 2 to day 3 of the treatment, there was a significant difference. On day 7, the observation and determination were conducted. An average adventitious root number and an average total adventitious root length for each seedling were calculated, and results were shown in the following table: […]

Series [4] can be described thus: Dilution and pH determination for sample solutions. It counts as physicochemical. The method, then:
Method: 0.2500 g of a sample was accurately weighed and added to a 25 mL volumetric flask, dissolved with purified water, and diluted to a specified scale to prepare a 1.00% (10,000.0 ppm) initial solution. The initial solution was diluted with purified water in different ratios to prepare a series of solutions with a concentration of 1,000.0 ppm to 0.1 ppm. A pH value of each sample was determined three times.

The test system of series [5] is wheat. The experiment in a line: Germination of wheat and growth of seedlings. It counts as in vivo, wheat (Huaimai 35). As to conditions: for Root length / Root number / Root weight / Seedling height / Seedling weight: wheat seedlings. The method, then: Method: 3 replicates were set for each treatment. 50 full seeds with a consistent size were selected each time for each sample, disinfected with sodium hypochlorite for 5 min, rinsed with clear water, and placed in a plastic box filled with 100 g of a sand. 25 mL of a prepared sample solution was poured into the plastic box, and the seeds were arranged regularly. The plastic box was covered with a lid, and then incubated in a 25° C. incubator. The germination was determined when a length of a sprout of a wheat seed exceeded a half of a diameter (long axis) of the wheat seed (determination criterion). According to the growth of wheat, the germ exposure of seeds and the number of germinated seeds were recorded every day. On day 6, 10 wheat seedlings were randomly selected, and a root length, a plant height, and a root number were determined. On day 7, a root weight and an aboveground part weight were determined. All index data was produced based on 3 replicates.

The nature of series [6]: Water solubility of the prepared salts. It counts as physicochemical.
Series [7] has as its system mosaic virus. Briefly: Controlling diseases in tobacco by spraying. As to conditions: 0.20 ppm sprayed twice, 30 L/mu. It counts as in vivo, tobacco (Yunyan 87). An excerpt: For each treatment, 4 plots relatively scattered were selected from the field, with each plot of 50 m^2. An agent was sprayed twice around May 28 and June 4 during a root-spreading stage (12 leaves to 14 leaves) after tobacco transplanting, respectively. A same spraying volume (30 L/mu) was adopted for each treatment. During the spraying operation, each leaf surface should be sprayed evenly without dead corners left.
On July 15, tobacco plants in all treatment plots were surveyed. An incidence grading survey was conducted according to the Grade and investigation method of tobacco diseases and insect pests GB/T23222-2008, and an incidence rate and a disease index were counted for each treatment plot.

Series [8] concerns wheat. The experiment in a line: Spraying on wheat to increase a yield. It counts as in vivo, wheat (Huaimai 35). Here is the method:
Crop: Huaimai 35. […] On Jun. 11, 2021, the harvesting was conducted throughout the field at a time.

Setting [9] is: under light 30,000 lux, 1 h, salts in water, acidic reference in 30% to 50% ethanol.
Setting [10] is: under light 30,000 lux, 2 h, salts in water, acidic reference in 30% to 50% ethanol.
Setting [11] is: under light 30,000 lux, 3 h, salts in water, acidic reference in 30% to 50% ethanol.
[12] abbreviates: 3 mg/mu sprayed 3 times (0.2, 0.1, 0.1 ppm).

As for `C=CC1=C(C)c2cc3[n-]c(cc4[n-]c(cc5nc(cc1n2)C(C)=C5C=C)c(C)c4CCC(=O)O)c(CCC(=O)O)c3C.[Cl-].[Fe+3]` [Chlorhematin, chlorhematin, reference compound], in series [1], the Average fruit number amounted to 49.2 fruits/plant. The Single-fruit weight in series [1] is given as 18.6 g/fruit. Besides, the Yield per mu in series [1] was found to be 2833.3 kg/mu. In series [1], this compound registered a Yield increase rate of 5.33%. The Relative content in series [2] (in the dark, 25° C., 0 h) is on record as 100.00%; in series [2] (in the dark, 25° C., 1 h) it was 99.55%; in series [2] (in the dark, 25° C., 2 h) it was 99.24%; in series [2] (in the dark, 25° C., 3 h) it was 98.65%; in series [2] (under light 30,000 lux, 0 h), 100.00%; in series [2] (setting [9]) it was 27.73%. For the same compound, the Relative content entry is “less than 30%” in series [2] (under light 30,000 lux, 1 h, salts in water, acidic reference in 30% to 50% ethanol, listed as chlorhematin); 21.64% in series [2] (setting [10]); 20.21% in series [2] (setting [11]). Also, the Adventitious root number in series [3] (0.01 ppm) is listed as 11.07 root/seedling; in series [3] (0.1 ppm), 10.33 root/seedling. Besides, the “Total adventitious root length” value in series [3] (0.01 ppm) was found to be 18.03 cm/seedling; in series [3] (0.1 ppm), 18.28 cm/seedling.
As to `C=CC1=C(C)c2cc3[n-]c(cc4nc(cc5[n-]c(cc1n2)c(C)c5C=C)C(C)=C4CCC(=O)[O-])c(CCC(=O)[O-])c3C.[Cl-].[Fe+3].[K+].[K+]` [Example 10, potassium chlorhematin], the pH result is listed as “(6.85)” in series [4] (0.1 ppm in purified water); “(6.90)” in series [4] (1.0 ppm in purified water); “(7.33)” in series [4] (10.0 ppm in purified water); “(7.45)” in series [4] (20.0 ppm in purified water); “(7.57)” in series [4] (30.0 ppm in purified water); “(8.10)” in series [4] (100.0 ppm in purified water). Moreover, the values for the pH result in series [4] (1000.0 ppm in purified water) and in series [4] (10000.0 ppm in purified water) were “(9.43)” and “(10.21)”, respectively. The “Germination rate of wheat” value in series [5] (0.0025 ppm) was 94.0%; in series [5] (0.0250 ppm) it was 94.7%; in series [5] (0.2500 ppm) it was 97.3%. For the same compound, the results for the Root length in series [5] (0.0025 ppm), in series [5] (0.0250 ppm) and in series [5] (0.2500 ppm) were 10.01 cm, 9.74 cm and 9.15 cm, respectively. The Root number amounted to 5.1 in series [5] (0.0025 ppm), 5.2 in series [5] (0.0250 ppm) and 5.3 in series [5] (0.2500 ppm). Further, the Root weight in series [5] (0.0025 ppm) was determined as 0.1163 g; in series [5] (0.0250 ppm), 0.1143 g; in series [5] (0.2500 ppm), 0.1036 g. Also, the Seedling height in series [5] (0.0025 ppm) is 9.42 cm; in series [5] (0.0250 ppm), 9.56 cm; in series [5] (0.2500 ppm), 7.51 cm. For the same compound, the figures for the Seedling weight in series [5] (0.0025 ppm), in series [5] (0.0250 ppm) and in series [5] (0.2500 ppm) were 0.298 g, 0.286 g and 0.211 g, respectively. In series [1], this compound yielded an Average fruit number of 50.5 fruits/plant. In series [1], the Single-fruit weight was 18.5 g/fruit. Also, the Yield per mu in series [1] was 2975.0 kg/mu. In series [1], this compound came in with a Yield increase rate of 10.59%. Moreover, the Relative content is recorded as 90.91% in series [2] (setting [9]), 90.08% in series [2] (setting [10]) and 81.82% in series [2] (setting [11]). The solubility in water entry in series [6] is “easily soluble”. In addition, the values for the Adventitious root number in series [3] (0.01 ppm) and in series [3] (0.1 ppm) were 14.85 root/seedling and 14.02 root/seedling, respectively. In addition, the “Total adventitious root length” value is listed as 26.83 cm/seedling in series [3] (0.01 ppm) and 25.21 cm/seedling in series [3] (0.1 ppm).
Regarding `C=CC1=C(C)c2cc3[nH]c(cc4nc(cc5[nH]c(cc1n2)c(C)c5CCC(=O)O)C(CCC(=O)O)=C4C)c(C)c3C=C` [Protoporphyrin disodium, protoporphyrin disodium, reference compound], the pH result is given as “(6.61)” in series [4] (0.1 ppm in purified water); “(6.67)” in series [4] (1.0 ppm in purified water); “(7.21)” in series [4] (10.0 ppm in purified water); “(7.37)” in series [4] (20.0 ppm in purified water); “(7.50)” in series [4] (30.0 ppm in purified water); “(8.05)” in series [4] (100.0 ppm in purified water). Moreover, the values for the pH entry in series [4] (1000.0 ppm in purified water) and in series [4] (10000.0 ppm in purified water) were “(9.25)” and “(10.60)”, respectively. In addition, the values for the Relative content in series [2] (setting [9]), in series [2] (setting [10]) and in series [2] (setting [11]) were 63.47%, 62.74% and 57.05%, respectively. Also, the Adventitious root number in series [3] (0.01 ppm) is reported as 9.61 root/seedling; in series [3] (0.1 ppm), 9.77 root/seedling. The “Total adventitious root length” value in series [3] (0.01 ppm) is recorded as 20.74 cm/seedling; in series [3] (0.1 ppm), 21.30 cm/seedling.
As to iron chlorin [reference compound], the Disease index in series [7] worked out at 8.90. This compound also returned a Relative control effect in series [7] of 65.57%. Besides, the Relative content in series [2] (in the dark, 25° C., 0 h) came out at 100.0%; in series [2] (in the dark, 25° C., 1 h), 99.25%; in series [2] (in the dark, 25° C., 2 h) it was 99.26%; in series [2] (in the dark, 25° C., 3 h), 99.20%; in series [2] (under light 30,000 lux, 0 h) it was 100.00%; in series [2] (setting [9]) it was 31.04%. The Relative content is on record as 28.12% in series [2] (setting [10]) and 23.73% in series [2] (setting [11]). Besides, in series [8] (setting [12]), the “Actual yield per mu” value is given as 586.9 kg. Besides, the “Ear number per mu” value in series [8] (setting [12]) is 31.5 10,000. Moreover, in series [8] (setting [12]), the “Grain number per ear” value is 34.6 grains/ear. Further, the Thousand-grain weight in series [8] (setting [12]) is on record as 53.9 g. Further, the “Yield increase rate per mu” value in series [8] (3 mg/mu sprayed 3 times, versus clear water) was found to be 4.99%.

The values above are taken from patent publication US20260123631A1, “NATURAL PORPHIN SALT AND USE THEREOF AS PLANT GROWTH REGULATOR AND PLANT IMMUNITY INDUCER” (NANJING BOSTEC BIOLOGICAL ENGINEERING CO., LTD, priority 2022, published 2026).
